Assay results as given in US6100281A, “Sulphonyloxadiazolones” (Bayer Aktiengesellschaft, priority 1997, dated 2000).

tested on: not listed separately; experiment: logP by HPLC (EEC Directive 79/831 Annex V. A8, gradient method); assay type: physicochemical; conditions: acetonitrile/0.1% aqueous phosphoric acid
Experimental: In Table 1, Me represents methyl. The logP values were determined in accordance with EEC Directive 79/831 Annex V. A8 by HPLC (gradient method, acetonitrile/0.1% aqueous phosphoric acid).

Row | SMILES | chromatographic logP
1 | CCN(CC)S(=O)(=O)n1c(Oc2ccc(OC)cc2)noc1=O [Example 44] | 3.1
2 | CCN(CC)S(=O)(=O)n1c(Oc2ccccc2C)noc1=O [Example 29] | 3.33
3 | CCN(CC)S(=O)(=O)n1c(Oc2cccc(C(=O)OC)c2)noc1=O [Example 37] | 3.09
4 | CCN(CC)S(=O)(=O)n1c(Oc2ccc(Cl)cc2)noc1=O [Example 38] | 3.53
5 | CCN(CC)S(=O)(=O)n1c(Oc2ccc(OC(F)(F)F)cc2)noc1=O [Example 62] | 3.82
6 | CN(C)S(=O)(=O)n1c(Oc2ccc(Cl)cc2Cl)noc1=O [Example 51] | 3.29
7 | Cc1ccc(S(=O)(=O)n2c(Oc3cc(C)ccc3C)noc2=O)cc1 [Example 4] | 3.93
8 | CN(C)S(=O)(=O)n1c(Oc2cccc(C(F)(F)F)c2)noc1=O [Example 21] | 3.13
9 | COc1cccc(OC)c1Oc1noc(=O)n1S(=O)(=O)N(C)C [Example 65] | 2.51
10 | CCN(CC)S(=O)(=O)n1c(Oc2ccccc2OC)noc1=O [Example 46] | 3.05
11 | CN(C)S(=O)(=O)n1c(Oc2ccccc2-c2ccccc2)noc1=O [Example 61] | 3.37
12 | CN(C)S(=O)(=O)n1c(Oc2ccc(Cl)c(Cl)c2)noc1=O [Example 22] | 3.37
13 | Cc1ccc(Oc2noc(=O)n2S(C)(=O)=O)c(C)c1 [Example 10] | 2.73
14 | Cc1cc(C)cc(Oc2noc(=O)n2S(=O)(=O)N(C)C)c1 [Example 32] | 3.18
15 | COc1ccc(Oc2noc(=O)n2S(=O)(=O)N(C)C)cc1 [Example 13] | 2.5
16 | CCN(CC)S(=O)(=O)n1c(Oc2cccc(C)c2C)noc1=O [Example 36] | 3.64
17 | CN(C)S(=O)(=O)n1c(Oc2ccc3c(c2)CCC3)noc1=O [Example 57] | 3.3
18 | CN(C)S(=O)(=O)n1c(Oc2ccc(F)cc2)noc1=O [Example 19] | 2.58
19 | CCN(CC)S(=O)(=O)n1c(Oc2cc(C)ccc2C)noc1=O [Example 35] | 3.7
20 | Cc1ccc(C)c(Oc2noc(=O)n2S(C)(=O)=O)c1 [Example 8] | 2.7
21 | CCN(C)S(=O)(=O)n1c(Oc2ccc(Oc3ccccc3)cc2)noc1=O [Example 59] | 3.83
22 | Cc1ccc(Oc2noc(=O)n2S(=O)(=O)N(C)C)cc1C [Example 16] | 3.15
23 | CN(C)S(=O)(=O)n1c(Oc2ccc(Oc3ccccc3)cc2)noc1=O [Example 53] | 3.58
24 | CCN(CC)S(=O)(=O)n1c(Oc2cccc(Cl)c2)noc1=O [Example 56] | 3.53
25 | COc1ccccc1Oc1noc(=O)n1S(=O)(=O)N(C)C [Example 23] | 2.49
26 | Cc1cccc(Oc2noc(=O)n2S(=O)(=O)N(C)C)c1 [Example 20] | 2.83
27 | CN(C)S(=O)(=O)n1c(Oc2ccccc2)noc1=O [Example 18] | 2.48

Row | SMILES | chromatographic logP
28 | CCN(CC)S(=O)(=O)n1c(Oc2ccc(F)cc2)noc1=O [Example 50] | 3.16
29 | CCN(CC)S(=O)(=O)n1c(Oc2ccc3c(c2)CCC3)noc1=O [Example 58] | 3.88
30 | COc1ccc(Oc2noc(=O)n2S(=O)(=O)c2ccc(C)cc2)cc1 [Example 3] | 3.34
31 | CCN(C)S(=O)(=O)n1c(Oc2cc(C)ccc2C)noc1=O [Example 64] | 3.42
32 | COC(=O)c1cccc(Oc2noc(=O)n2S(=O)(=O)N(C)C)c1 [Example 34] | 2.54
33 | CCN(CC)S(=O)(=O)n1c(Oc2ccc(C)cc2C)noc1=O [Example 31] | 3.72
34 | CN(C)S(=O)(=O)n1c(Oc2ccc(-c3ccccc3)cc2)noc1=O [Example 60] | 3.56
35 | CCN(CC)S(=O)(=O)n1c(Oc2cc(C)cc(C)c2)noc1=O [Example 33] | 3.75
36 | CCN(CC)S(=O)(=O)n1c(Oc2ccc(Oc3ccccc3)cc2)noc1=O [Example 54] | 4.19
37 | CCN(CC)S(=O)(=O)n1c(Oc2cccc(C(F)(F)F)c2)noc1=O [Example 48] | 3.68
38 | CCN(CC)S(=O)(=O)n1c(Oc2cccc(OC)c2)noc1=O [Example 28] | 3.14
39 | CN(C)S(=O)(=O)n1c(Oc2ccccc2F)noc1=O [Example 47] | 2.55
40 | Cc1ccc(S(=O)(=O)n2c(Oc3ccc(F)cc3)noc2=O)cc1 [Example 6] | 3.39
41 | Cc1cccc(Oc2noc(=O)n2S(=O)(=O)N(C)C)c1C [Example 30] | 3.04
42 | CCN(CC)S(=O)(=O)n1c(Oc2ccc(C)cc2)noc1=O [Example 45] | 3.42
43 | CCN(CC)S(=O)(=O)n1c(Oc2c(C)cccc2C)noc1=O [Example 42] | 3.64
44 | CCN(CC)S(=O)(=O)n1c(Oc2ccccc2)noc1=O [Example 39] | 3.06
45 | CCN(CC)S(=O)(=O)n1c(Oc2ccc(Cl)cc2Cl)noc1=O [Example 63] | 3.88
46 | CCN(CC)S(=O)(=O)n1c(Oc2cccc(C)c2)noc1=O [Example 43] | 3.42
47 | CN(C)S(=O)(=O)n1c(Oc2ccc(OC(F)(F)F)cc2)noc1=O [Example 52] | 3.3
48 | CN(C)S(=O)(=O)n1c(Oc2ccc(Cl)cc2)noc1=O [Example 15] | 2.94
49 | Cc1ccc(Oc2noc(=O)n2S(=O)(=O)N(C)C)c(C)c1 [Example 12] | 3.13
50 | CCS(=O)(=O)n1c(Oc2ccc(C)cc2C)noc1=O [Example 14] | 2.95
51 | COc1cccc(Oc2noc(=O)n2S(=O)(=O)N(C)C)c1OC [Example 40] | 2.58
52 | CN(C)S(=O)(=O)n1c(Oc2cccc(Cl)c2)noc1=O [Example 55] | 2.95
53 | Cc1ccc(S(=O)(=O)n2c(Oc3ccc(C)cc3C)noc2=O)cc1 [Example 9] | 3.89
54 | CCN(CC)S(=O)(=O)n1c(Oc2cccc(OC)c2OC)noc1=O [Example 49] | 3.15

tested on: Phytophthora infestans; experiment: whole plant or invertebrate; assay type: in vivo; conditions: in Solanum lycopersicum, 72 h, read-out: Efficacy

Row | SMILES | pest or weed control at 100 g/ha [%]
55 | Cc1ccc(C)c(Oc2noc(=O)n2S(=O)(=O)N(C)C)c1 [Example 1, N,N-dimethyl-3-(2,5-dimethylphenoxy)-5-oxo-[1,2,4]oxadiazole-4-sulphonamide] | 99
56 | Cc1ccc(Oc2noc(=O)n2S(C)(=O)=O)c(C)c1 [Example 10] | 92
57 | COc1ccc(Oc2noc(=O)n2S(=O)(=O)N(C)C)cc1 [Example 13] | 92
58 | Cc1ccc(Oc2noc(=O)n2S(=O)(=O)N(C)C)cc1C [Example 16] | 99
59 | CN(C)S(=O)(=O)n1c(Oc2ccccc2)noc1=O [Example 18] | 95
60 | CCS(=O)(=O)n1c(Oc2cc(C)ccc2C)noc1=O [Example 2, 3-(2,5-dimethylphenoxy)-4-ethanesulphonyl-4H-[1,2,4]oxadiazol-5-one] | 95
61 | CN(C)S(=O)(=O)n1c(Oc2ccc(Br)cc2)noc1=O [Example 17] | 94
62 | Cc1ccc(Oc2noc(=O)n2S(=O)(=O)N(C)C)c(C)c1 [Example 12] | 97
63 | CCS(=O)(=O)n1c(Oc2ccc(C)cc2C)noc1=O [Example 14] | 97
